Assay results published in patent US20240025862A1, “SUBSTITUTED N-PHENYLURACILS AND SALTS THEREOF, AND USE THEREOF AS HERBICIDAL ACTIVE SUBSTANCES” (Bayer Aktiengesellschaft, priority 2020, published 2024).

Tests used:
Assay type in all cases: in vivo
[1] = system: Abutilon theophrasti (ABUTH); experiment: Post-emergence herbicidal action, greenhouse pot test; details: rated visually after about 3 weeks vs untreated controls, 100% = plants have died
Experimental: (§1) Seeds of monocotyledonous and dicotyledonous weeds and crop plants were placed in sandy loam in plastic or wood-fiber pots, covered with soil and cultivated in a greenhouse under controlled growth conditions. 2 to 3 weeks after sowing, the test plants were treated at the one-leaf stage. The compounds of the invention, formulated in the form of wettable powders (WP) or as emulsion concentrates (EC), were then sprayed onto the green parts of the plants as aqueous suspension or emulsion with addition of 0.5% additive at a water application rate of 600 l/ha (converted). After the test plants had been kept in the greenhouse under optimum growth conditions for about 3 weeks, the activity of the preparations was rated visually in comparison to untreated controls. For example, 100% activity=the plants have died, 0% activity=like control plants.
(§2) Tables A1 to A14 below show the effects of selected compounds of the general formula (I) according to Tables I.1 to I.33 on various harmful plants and at an application rate corresponding to 20 g/ha and less, which were obtained by the experimental method specified above. The appendices “a”, “b” and “c” give differentiation by different dosage with otherwise the same harmful plants tested.

[2] = system: Amaranthus retroflexus (AMARE); experiment: as above; details: rated visually after about 3 weeks vs untreated controls, 100% = plants have died
Experimental: as §1, §2

[3] = system: Pharbitis purpurea (PHBPU); experiment: as above
Experimental: as §1, §2

[4] = system: Polygonum convolvulus (POLCO); experiment: as above
Experimental: as §1, §2

Veronica persica (VERPE) = experiment: as above
Experimental: as §1, §2

Viola tricolor (VIOTR) = experiment: as above
Experimental: as §1, §2

[5] = system: Alopecurus myosuroides (ALOMY); experiment: Post-emergence herbicidal action, greenhouse pot test (also comparative test C); details: rated visually after about 3 weeks vs untreated controls, 100% = plants have died
Experimental: as §1, §2
(§3) C. Comparative Herbicidal Action and Crop Plant Compatibility of Two Inventive Compounds (I.7-1 and I.7-115) with a Compound of Similar Structure Known from the Literature (WO2002/098227, a-17 and EP1106607, 3-14) in Post-Emergence Treatment.
(§4) Tables C1-C4 below show the effects of two inventive compounds (I.7-1 and I.7-115) together with a compound of similar structure known from the literature (a-17 in WO2002/098227, and 3-14 in EP1106607) in different crop plants at an application rate corresponding to 5 g/ha or less, which have been obtained by the aforementioned experimental procedure.

[6] = system: Echinochloa crus-galli (ECHCG); experiment: as above
Experimental: as §1, §2, §3, §4

[7] = system: Matricaria inodora (MATIN); experiment: as above
Experimental: as §1, §2, §3, §4

Setaria viridis (SETVI) = experiment: as above; details: for Post-emergence action against SETVI: 20 g/ha
Experimental: as §1, §2, §3, §4

[8] = system: Triticum aestivum (TRZAS); experiment: Post-emergence crop plant compatibility, greenhouse pot test; details: vs untreated controls
Experimental: as §1
(§5) The observed effects on selected crop plants are reported here in comparison to the untreated controls (values in %). The appendices “a”, “b” and “c” give differentiation by different dosage with otherwise the same crop plants tested.

Zea mays (ZEAMX) = experiment: as above; details: 1.25 g/ha, vs untreated controls
Experimental: as §1, §5

Oryza sativa (ORYSA) = experiment: Post-emergence crop plant compatibility, greenhouse pot test (also comparative test C); details: vs untreated controls
Experimental: as §1, §5, §3

Compound	Post-emergence action at 1.25 g/ha against ABUTH in % [1] [%]	Post-emergence action at 5 g/ha against ABUTH in % [1] [%]	Post-emergence action at 20 g/ha against ABUTH in % [1] [%]	Post-emergence action at 5 g/ha against AMARE in % [2] [%]	Post-emergence action at 20 g/ha against AMARE in % [2] [%]	Post-emergence action against PHBPU in % ([3]; dosage 5 g/ha) [%]	Post-emergence action against PHBPU in % ([3]; dosage 20 g/ha) [%]	Post-emergence action against POLCO in % ([4]; dosage 5 g/ha) [%]	Post-emergence action against POLCO in % ([4]; dosage 20 g/ha) [%]	Post-emergence action against VERPE (Veronica persica (VERPE); 1.25 g/ha) [%]	Post-emergence action against VERPE (Veronica persica (VERPE); 5 g/ha) [%]	Post-emergence action against VERPE (Veronica persica (VERPE); 20 g/ha) [%]	Post-emergence action against VIOTR (Viola tricolor (VIOTR); 1.25 g/ha) [%]	Post-emergence action against VIOTR (Viola tricolor (VIOTR); 5 g/ha) [%]	Post-emergence action against VIOTR (Viola tricolor (VIOTR); 20 g/ha) [%]	Post-emergence action at 20 g/ha against ALOMY in % [5] [%]	Post-emergence action against ECHCG in % ([6]; dosage 5 g/ha) [%]	Post-emergence action against ECHCG in % ([6]; dosage 20 g/ha) [%]	Post-emergence action against MATIN in % ([7]; dosage 20 g/ha) [%]	Post-emergence action against SETVI (Setaria viridis (SETVI)) [%]	also measured
Cn1c(C(F)(F)F)cc(=O)n(-c2cc(Oc3cc(F)ccc3OCC(=O)OCC#N)c(Cl)cc2F)c1=O [I.23-176]	80	100	100	100	100	90	100	100	100	100	100	100	90	100	100	100	100	100	80	100	Post-emergence action at 1.25 g/ha against AMARE in % [2]: 100%; Post-emergence action against PHBPU in % ([3]; dosage 1.25 g/ha): 90%; Post-emergence action against SETVI in % (Setaria viridis (SETVI); dosage 1.25 g/ha): 100%; Post-emergence action against SETVI in % (Setaria viridis (SETVI); dosage 5 g/ha): 100%; Post-emergence action against TRZAS (crop plant compatibility) ([8]; 1.25 g/ha): 10%; Post-emergence action against ZEAMX (crop plant compatibility) (Zea mays (ZEAMX)): 20%; Post-emergence action against ORYSA (crop plant compatibility) (Oryza sativa (ORYSA); 1.25 g/ha): 0%; Post-emergence action against ORYSA (crop plant compatibility) (Oryza sativa (ORYSA); 5 g/ha): 20%
Cn1c(C(F)(F)F)cc(=O)n(-c2cc(Oc3ccccc3OCC(=O)OCCC[N+](=O)[O-])c(Cl)cc2F)c1=O [I.7-339]	90	100	100	100	100	100	100	100	100	80	100	100	100	100	100	100	100	100	100	100	Post-emergence action at 1.25 g/ha against AMARE in % [2]: 100%; Post-emergence action against PHBPU in % ([3]; dosage 1.25 g/ha): 100%; Post-emergence action at 5 g/ha against ALOMY in % ([5]; 5 g/ha): 100%; Post-emergence action against MATIN in % ([7]; dosage 5 g/ha): 100%; Post-emergence action against SETVI in % (Setaria viridis (SETVI); dosage 1.25 g/ha): 100%; Post-emergence action against SETVI in % (Setaria viridis (SETVI); dosage 5 g/ha): 100%; Post-emergence action against TRZAS (crop plant compatibility) ([8]; 1.25 g/ha): 0%; Post-emergence action against TRZAS (crop plant compatibility) ([8]; 5 g/ha): 20%; Post-emergence action against ZEAMX (crop plant compatibility) (Zea mays (ZEAMX)): 20%; Post-emergence action against ORYSA (crop plant compatibility) (Oryza sativa (ORYSA); 1.25 g/ha): 0%; Post-emergence action against ORYSA (crop plant compatibility) (Oryza sativa (ORYSA); 5 g/ha): 10%
COCCOC(=O)COc1ccc(F)cc1Oc1cc(-n2c(=O)cc(C(F)(F)F)n(C)c2=O)c(F)cc1Cl [I.23-1]	100	100	100	100	100	80	80	100	100	80	100	100	80	100	100	90	100	100	100	100	Post-emergence action against POLCO in % ([4]; dosage 1.25 g/ha): 90%; Post-emergence action against MATIN in % ([7]; dosage 5 g/ha): 80%; Post-emergence action against SETVI in % (Setaria viridis (SETVI); dosage 1.25 g/ha): 100%; Post-emergence action against SETVI in % (Setaria viridis (SETVI); dosage 5 g/ha): 100%; Post-emergence action against TRZAS (crop plant compatibility) ([8]; 1.25 g/ha): 20%; Post-emergence action against ZEAMX (crop plant compatibility) (Zea mays (ZEAMX)): 20%; Post-emergence action against ORYSA (crop plant compatibility) (Oryza sativa (ORYSA); 1.25 g/ha): 0%
